Test results: publication PMC11258331 (Scientific Reports, 2024)
Marks after values point to notes of the source that are not given here.

Experiments:
[1] = test system: platelet aggregation induced by adenosine diphosphate (ADP); assay: ADP (20 µM)-induced platelet aggregation, light transmission aggregometry; assay type: in vivo, human
Procedure: (§1) PD assessments were performed on Days 1 (≤ 24 h) and 5 (≤ 72 h) of each period (Supplementary Table 8); assessments included aPTT[18], FXIc[18], and bleeding time (assessed according to the PPD® Laboratories [Austin, TX] procedure where a blood pressure cuff, situated above the incision site, provided pressure at 40 mmHg and blood from the incision was wicked with filter paper every 30 s until cessation to record bleeding time). In addition, AA (1 mM), ADP) (20 µM)-, and collagen (5 μg/ml)-induced platelet aggregation assays were performed using light transmission aggregometry (PPD® Laboratories) and performed on Days 1 and 5 (≤ 24 h) for only Period 1.

[2] = test system: platelet aggregation induced by collagen; assay: Collagen (5 μg/ml)-induced platelet aggregation, light transmission aggregometry; assay type: in vivo, human
Procedure: as §1

[3] = test system: human carboxylesterase 1; conditions: liver; cited from earlier work
[4] = Plasma pharmacokinetics (LC-MS/MS, noncompartmental; GMR by linear mixed-effects model); conditions: for AUC: AUC(TAU);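 on all read-outs here: participants at one US clinical research site, randomized 1:1:1 to a single study part, with 90% CIs from a mixed-effects model on log-transformed PK parameters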
Procedure: The study (ClinicalTrials.gov Identifier: NCT03698513) was conducted at 1 clinical research center in the United States. […] Participants underwent screening evaluations to determine eligibility within 35 days of study drug administration, and eligible participants were randomly assigned 1:1:1 to a single part of the study.
All statistical analyses and calculations were performed using SAS® software (SAS Institute, Inc., Cary, North Carolina; version 9.3). All safety and plasma PK/PD data were summarized using descriptive statistics. Descriptive summaries were presented for continuous variables using number of subjects (N), mean, SD; median, minimum, and maximum. […] CIs were constructed using a linear mixed-effects model with treatment as a fixed effect and measurements within participants as repeated measures fitted to the log-transformed PK parameters.

[5] = test system: arachidonic acid (AA)-induced platelet aggregation; assay: AA (1 mM)-induced platelet aggregation, light transmission aggregometry; assay type: in vivo, human
Procedure: as §1

[6] = test system: healthy participants; assay: Adverse events and bleeding-related AEs by treatment, phase I DDI study;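 further: counts from medical review of adverse event and bleeding-related adverse event reports, collected at selected times across the dosing interval, single US site, randomised 1:1:1 to one study part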
Procedure: Participants underwent screening evaluations to determine eligibility within 35 days of study drug administration, and eligible participants were randomly assigned 1:1:1 to a single part of the study.
Safety assessments were performed at selected times throughout the dosing interval (Supplementary Table 7). The assessments were based on medical review of AE and bleeding-related AE reports, and the results of vital sign measurements, ECG measurements, physical examinations, and clinical laboratory tests.

[7] = test system: healthy participants; assay: Bleeding time (PPD Laboratories procedure); assay type: in vivo, human; conditions: milvexian alone (Treatments B, D, G)
Procedure: as §1

[8] = test system: activated partial thromboplastin time (aPTT); assay: Activated partial thromboplastin time (aPTT); assay type: in vivo, human; conditions: postdose on Day 5
Procedure: as §1

[9] = test system: patients who underwent knee arthroplasty; conditions: postoperative treatment, 25 mg QD to 200 mg BID; cited from earlier work
[10] = test system: cytochrome P450 (CYP)–3A4; conditions: spray-dried dispersion formulation studies; cited from earlier work
[11] = test system: patients with acute ischemic stroke or high risk transient ischemic attack; conditions: 25 mg QD or 25, 50, 100, 200 mg BID on background of aspirin and clopidogrel; cited from earlier work
[12] = cited from earlier work
[13] = Day 1, plasma, Treatment F (milvexian + clopidogrel), Part 2
[14] = human, plasma, oral, geometric mean (90% CI), Day 1, plasma, Treatment A (milvexian + aspirin + clopidogrel), Part 1
[15] = milvexian alone (Treatments B, D, G), Days 1 and 5
[16] = Day 1, Treatment A vs Treatment B (milvexian alone)
[17] = human, plasma, oral, geometric mean [n] (90% CI), Day 5, plasma, Treatment D (milvexian alone), Part 2

COC(=O)[C@H](c1ccccc1Cl)N1CCc2sccc2C1 [Clopidogrel]
Inhibition of ADP-induced aggregation compared with baseline ([1]; drug alone (Treatment E or H)): ~ 50% | Inhibition of collagen-induced aggregation compared with baseline ([2]; drug alone (Treatment E or H)): < 10% | Share first-passed hydrolyzed to clopidogrel acid [3]: ~ 85 % of absorbed drug | Reduction of Cmax ([4]; Day 1, Treatment A vs Treatment C (aspirin and clopidogrel without milvexian)): 14% | Reduction of Cmax ([4]; Day 1, Treatment F (with milvexian) vs Treatment E (clopidogrel alone)): 9.1% | Cmax, geometric mean (90% CI) [4, 13]: 4.05 (3.09, 5.31) ng/mL | Cmax, geometric mean [n] (90% CI) ([4]; Day 5, plasma, Treatment C (placebo + aspirin + clopidogrel), Part 1): 1.15 (0.898, 1.46) ng/mL | Cmax [4, 14]: 3.29 ng/mL | Cmax ([4]; human, plasma, oral, geometric mean (90% CI), Day 1, plasma, Treatment C (placebo + aspirin + clopidogrel), Part 1): 3.83 ng/mL | Cmax ([4]; human, plasma, oral, geometric mean (90% CI), Day 1, plasma, Treatment E (placebo + clopidogrel), Part 2): 4.45 ng/mL | half-life ([4]; human, plasma, oral, Mean T1/2, with (Treatment F) and without (Treatment E) milvexian, Days 1 and 5): 60 to 120 min | Tmax ([4]; human, plasma, oral, Median Tmax, Day 1, Treatments F and E): 1 to 1.5 h | Tmax ([4]; human, plasma, oral, Median Tmax, Day 5, Treatments F and E): 0.5 to 1 h | Tmax ([4]; human, plasma, oral, Tmax, median [n] (range), Day 5, plasma, Treatment C (placebo + aspirin + clopidogrel), Part 1): 0.5 h | Inhibition of AA-induced aggregation compared with baseline ([5]; drug alone (Treatment E or H)): ~ 60% | Anal fissure hemorrhage ([6]; Part 2 (Treatments D-F)): 0 n (%) | Contusion ([6]; Part 2 (Treatments D-F)): 1 (2.8)^†† n (%) | Deaths ([6]; Part 2 (Treatments D-F)): 0 n (%) | Discontinuations due to AEs ([6]; Part 2 (Treatments D-F)): 1 (2.8)^‖ n (%) | Epistaxis ([6]; Part 2 (Treatments D-F)): 0 n (%) | Gingival bleeding ([6]; Part 2 (Treatments D-F)): 0 n (%) | Serious AEs ([6]; Part 2 (Treatments D-F)): 0 n (%) | Total participants with an AE ([6]; Part 2 (Treatments D-F)): 6 (16.7) n (%) | Total participants with bleeding event(s) ([6]; Part 2 (Treatments D-F)): 1 (2.8) n (%) | Vessel puncture site bruise ([6]; Part 2 (Treatments D-F)): 0 n (%) | Events of contusion reported by a single participant ([6]; bleeding AE): 1 events

C[C@@H]1CCC[C@H](n2cnc(-c3cc(Cl)ccc3-n3cc(Cl)nn3)cc2=O)c2cc(ccn2)-c2c(cnn2C(F)F)NC1=O [Milvexian]
Change of ADP-induced platelet aggregation compared with baseline [1, 15]: < 10% | Effect on bleeding time [7]: did not increase bleeding times | Change of collagen-induced platelet aggregation compared with baseline [2, 15]: < 10% | Time by which aPTT returned to baseline [8]: ≤ 72 h | Effect on incidence of venous thromboembolism [9]: reduced the incidence of venous thromboembolism in a dose-dependent manner | Route of metabolism [10]: predominantly metabolized by cytochrome P450 (CYP)–3A4 | Dose response for composite of symptomatic ischemic stroke or covert brain infarction [11]: did not produce a statistically significant dose response | Reduction of AUC(TAU) [4, 16]: 15% | Reduction of Cmax [4, 16]: 17% | Tmax, median (range) ([4]; Day 1, plasma, Treatment A (milvexian + aspirin + clopidogrel), Part 1): 4.00 (2.13, 6.02) h | Tmax, median (range) ([4]; Day 1, plasma, Treatment B (milvexian alone), Part 1): 3.00 (2.00, 4.13) h | Tmax, median (range) ([4]; Day 1, plasma, Treatment D (milvexian alone), Part 2): 4.00 (2.00, 6.00) h | AUC(TAU), geometric mean [n] (90% CI) [4, 13]: 5042 (4621, 5503) ng•h/mL | Tmax, median (range) [4, 13]: 4.00 (2.00, 4.13) h | Tmax, median (range) ([4]; Day 1, plasma, Treatment G (milvexian alone), Part 3): 4.00 (2.00, 6.02) h | Tmax, median (range) ([4]; Day 1, plasma, Treatment I (milvexian + aspirin), Part 3): 4.00 (2.00, 6.03) h | Tmax, median [n] (range) ([4]; Day 5, plasma, Treatment B (milvexian alone), Part 1): 3.00 (0.00, 6.00) h | Tmax, median [n] (range) ([4]; Day 5, plasma, Treatment F (milvexian + clopidogrel), Part 2): 4.00 (1.00, 6.00) h | AUC ([4]; human, plasma, oral, geometric mean [n] (90% CI), Day 1, plasma, Treatment B (milvexian alone), Part 1): 5610 ng·h/mL | AUC [4, 17]: 22000 ng·h/mL | Cmax [4, 14]: 718 ng/mL | Cmax ([4]; human, plasma, oral, geometric mean (90% CI), Day 1, plasma, Treatment B (milvexian alone), Part 1): 868 ng/mL | Cmax ([4]; human, plasma, oral, geometric mean (90% CI), Day 1, plasma, Treatment D (milvexian alone), Part 2): 898 ng/mL | Cmax ([4]; human, plasma, oral, geometric mean (90% CI), Day 1, plasma, Treatment F (milvexian + clopidogrel), Part 2): 817 ng/mL | Cmax ([4]; human, plasma, oral, geometric mean (90% CI), Day 1, plasma, Treatment G (milvexian alone), Part 3): 867 ng/mL | Cmax ([4]; human, plasma, oral, geometric mean (90% CI), Day 1, plasma, Treatment I (milvexian + aspirin), Part 3): 850 ng/mL | Cmax ([4]; human, plasma, oral, geometric mean [n] (90% CI), Day 5, plasma, Treatment B (milvexian alone), Part 1): 2690 ng/mL | Cmax [4, 17]: 2670 ng/mL | Cmax ([4]; human, plasma, oral, geometric mean [n] (90% CI), Day 5, plasma, Treatment F (milvexian + clopidogrel), Part 2): 2500 ng/mL | Tmax ([4]; human, plasma, oral, Median Tmax, across Treatments A and B): 3 to 4 h | Tmax ([4]; human, plasma, oral, Tmax, median [n] (range), Day 5, plasma, Treatment D (milvexian alone), Part 2): 3.05 h | Effect on AA-induced platelet aggregation ([5]; milvexian alone (Treatments B, D, G), not consistent, no correlation with milvexian concentration): a decrease in arachidonic acid (AA)-induced platelet aggregation was observed | Anal fissure hemorrhage ([6]; Part 2 (Treatments D-F)): 0 n (%) | Contusion ([6]; Part 2 (Treatments D-F)): 0 n (%) | Deaths ([6]; Part 2 (Treatments D-F)): 0 n (%) | Discontinuations due to AEs ([6]; Part 2 (Treatments D-F)): 1 (2.8)^§ n (%) | Epistaxis ([6]; Part 2 (Treatments D-F)): 0 n (%) | Gingival bleeding ([6]; Part 2 (Treatments D-F)): 0 n (%) | Serious AEs ([6]; Part 2 (Treatments D-F)): 0 n (%) | Total participants with an AE ([6]; Part 2 (Treatments D-F)): 5 (13.9) n (%) | Total participants with bleeding event(s) ([6]; Part 2 (Treatments D-F)): 0 n (%) | Vessel puncture site bruise ([6]; Part 2 (Treatments D-F)): 0 n (%) | Anal fissure hemorrhage ([6]; Part 3 (Treatments G-I)): 1 (2.7) n (%) | Contusion ([6]; Part 3 (Treatments G-I)): 0 n (%) | Deaths ([6]; Part 3 (Treatments G-I)): 0 n (%) | Discontinuations due to AEs ([6]; Part 3 (Treatments G-I)): 1 (2.7)^¶ n (%) | Epistaxis ([6]; Part 3 (Treatments G-I)): 0 n (%) | Gingival bleeding ([6]; Part 3 (Treatments G-I)): 0 n (%) | Serious AEs ([6]; Part 3 (Treatments G-I)): 0 n (%) | Total participants with an AE ([6]; Part 3 (Treatments G-I)): 6 (16.2) n (%) | Total participants with bleeding event(s) ([6]; Part 3 (Treatments G-I)): 1 (2.7) n (%) | Vessel puncture site bruise ([6]; Part 3 (Treatments G-I)): 0 n (%) | Events of anal fissure hemorrhage reported by a single participant ([6]; bleeding AE, Part 3, Treatment G): 1 events | Urine excretion [12]: < 20%
